# Patent US20070184021A1, “Use of caspase inhibitors as a therapeutic agent against radiation-induced injury” (priority 2002, published 2007)
# Residues, ends and D or L forms follow the SMILES beside them. *: point of attachment. Cbz = O=C(OCc1ccccc1)*; CH2F = FC*
# Key:
# mouse BM cells = experiment: Cobblestone area-forming cell (CAFC) assay of irradiated BM cells; format: cell-based; settings: 100 μM z-VAD 1 h prior to 4 Gy IR
# Experimental: FIGS. 8A-B. z-VAD partially protects HSC from IR-induced suppression of hematopoietic function. BM cells were pre-incubated with vehicle or 100 μM z-VAD for 1 h and then were exposed to 4 Gy IR. BM cells without IR were used as control. Six hours after the IR, the cells were overlaid on FBMD-1 stromal cell layers. The frequency of CAFC was determined on 7, 14, 21, 28 and 35 days after IR. FIG. 8A—Frequency of CAFC. FIG. 8B—Survival fraction of CAFC as compared to that of control cells. The data presented are mean +/− SEM (n=3 individual mice/groups). Vehicle/IR vs z-VAD/IR, p<0.01 by ANOVA.
# z-VAD protects HSC from IR-induced suppression of hematopoietic function. To determine if inhibition of IR-induced HSC apoptosis by z-VAD preserves their hematopoietic function, mouse BM cells were pre-incubated with vehicle (0.2% DMSO) or z-VAD (100 μM) one hour prior to exposure to IR (4 Gy). The hematopoietic function of these cells were analyzed by cobblestone area-forming cell (CAFC) assay (Ploemacher et al., 1989). This in vitro assay provides an estimate of the hematopoietic function of a spectrum of CAFC day-types that correspond to CFU-granulocyte macrophage (CFU-GM) (CAFC day 7), CFU-spleen (CFU-S) day-12 (CAFC day 14), and the primitive HSC with long-term repopulating ability (CAFC day 28-35) (Ploemacher et al., 1989).
# Lin− Sca1− c-kit+ cells = experiment: Apoptosis assay, annexin V/7-AAD flow cytometry of irradiated Lin- cells, progenitor gate; format: cell-based, mouse
# Experimental: (§1) Isolation of lineage negative hematopoietic (Lin) cells: BM mononuclear cells were incubated with biotin-conjugated rat antibodies specific for murine CD5, Mac-1, CD45R/B220, Ter-119 and Gr-1. The labeled mature lymphoid and myeloid cells were removed twice after they were incubated with goat anti-rat IgG paramagnetic beads (Dynal Inc, Lake Success, N.Y.) at a bead:cell ratio of approximately 4:1 and exposed to a magnetic field. The isolated Lin- cells were washed twice with 2% FCS/HBSS and resuspended in complete medium (RPMI1640 medium with 10%FCS, 200 mM L-glutamine and 100 U/ml penicillin and streptomycin) at 1×10^6/ml.
# (§2) Ionizing radiation (IR). Aliquots of 2 ml of Lin- cells (1×10^6/ml in complete medium) were placed into a cell culture tube and exposed to 4 Gy IR on a rotating platform in a Mark IV^137Cesium gamma-irradiator (JL Shepherd, Glendale, Calif.) at a dose rate of 1.21 Gy/min.
# (§3) Apoptosis assays. Lin^− cells (1×10^6/ml in complete medium) were exposed to 4 Gy IR or non-irradiated (Control). They were incubated in wells of a 24-well plate at 37° C., 5% CO2 and 100% humidity for 6 or 18 h. For z-VAD treatment studies, the cells were pre-incubated with vehicle (0.2% DMSO) or 100 μM z-VAD for 1 h prior to IR exposure, or they were treated with z-VAD immediately before or 30 min, 1 h, 2 h or 4 h after IR exposure. After 6 or 18 h incubation, 0.5 ml cells ([…]) were washed once with 1 ml 0.1% BSA/PBS. The cells were centrifuged for 5 min, 350× g at 4° C. Next, the cells were incubated with anti-CD16/32 at 4° C. for 15 min to block the Fcγ receptors and then stained with Sca-1-PE and c-kit-APC antibodies for 20 min at 4° C. in the dark. The cells were washed twice with 1 ml 0.1% BSA/PBS, centrifuged for 5 min, 350× g at RT. Next, 100 μl 1× binding buffer (10 mM HEPES, pH 7.4, 140 mM NaCl, and 2.5 mM CaCl2) was added to the pellet along with 3 μl Annexin V-FITC (Pharmingen, San Diego, Calif.) and 5 μl 7-AAD (10 μg/ml, from Molecular Probes, Eugene, Oreg.). The cell suspension was gently mixed and incubated for 15 min at room temperature. The cells were diluted in 400 μl 1× binding buffer immediately prior to subjection of FACS analysis. In all experiments, PE and APC isotype controls and FITC and 7-AAD positive controls were included as appropriate. Two or four-color flow cytometric analyses were performed using a FACS Caliber (Becton Dickinson, San Jose, Calif.).
# Male C57BL/6 mice = experiment: Protection of mice from IR-induced lethality; format: in vivo, mouse
# Experimental: FIG. 9. z-VAD protects mice from IR-induced lethality. Male C57BL/6 mice were given two i.p. injections of vehicle (0.25 ml PBS with 0.2% DMSO) or z-VAD (6 mg/kg) at one hour prior to and 5 h after exposure to a lethal dose of IR (10.5 Gy). The survival of these mice was monitored daily up to 24 days after exposure to IR. n=6 mice/group).
# z-VAD protects mice from IR-induced lethality. Finally, the inventors examined if z-VAD acts as a radioprotectant to protect mice from IR-induced death. Male C57BL/6 mice were given two i.p. injections of vehicle (0.25 ml PBS with 0.2% DMSO) or z-VAD (6 mg/kg) at one hour prior to and 5 h after exposure to a lethal dose of IR (10.5 Gy). […] In contrast, 50% mice receiving z-VAD injections remain alive up to today (24 days) after IR.
# Lin− Sca1+ c-kit+ cells = experiment: Apoptosis assay, annexin V/7-AAD flow cytometry of irradiated Lin- cells, HSC gate; format: cell-based, mouse; settings: for IR-induced apoptosis: 4 Gy
# Experimental: as §1, §2, §3
# [1] = 100 μM z-VAD 1 h prior to 4 Gy IR
# [2] = 100 μM z-VAD 1 h prior to 4 Gy IR, 6 and 18 h post IR
compound,measurement,setting,value
"COC(=O)C[C@H](NC(=O)[C@H](C)NC(=O)[C@@H](NC(=O)OCc1ccccc1)C(C)C)C(=O)CF [z-VAD, Z-Val-Ala-Asp (OCH3)-Fluoromethylketone, methyl ester] (Cbz-Val-Ala-Asp(OMe)-CH2F)",CAFC frequency and survival fraction vs vehicle-treated cells exposed to IR,mouse BM cells; p<0.01,significantly increased
same,survival fraction of CAFC relative to vehicle-treated cells,mouse BM cells; CAFC day 7-35,about 2 fold
same,survival fraction of CAFC,mouse BM cells; CAFC day 7,0.211
same,survival fraction of CAFC,mouse BM cells; CAFC day 14,0.058
same,survival fraction of CAFC,mouse BM cells; CAFC day 21,0.148
same,survival fraction of CAFC,"mouse BM cells; last value of the list, CAFC day 28 or 35 (four values printed for five days)",0.453
same,necrotic cell death (7-AAD+ cells),Lin− Sca1− c-kit+ cells; [1],did not lead to an increase
same,IR-induced apoptosis (annexin V+ and annexin V+/7-AAD+ cells),"Lin− Sca1− c-kit+ cells; 100 μM z-VAD 1 h prior to 4 Gy IR, 6 and 18 h after IR",attenuated
same,IR-induced reduction of cell numbers,Lin− Sca1− c-kit+ cells; [2],only partially protected
same,numbers of cells as percentage of un-irradiated control cells,"Lin− Sca1− c-kit+ cells; 100 μM z-VAD 1 h prior to 4 Gy IR, 18 h post IR",about 29%
same,"IR-induced apoptosis, compared with the effect in Lin− Sca1+ c-kit+ cells",Lin− Sca1− c-kit+ cells; 100 μM z-VAD given -1 h to 4 h relative to 4 Gy IR,to a less extent
same,mice alive after IR,"Male C57BL/6 mice; z-VAD 6 mg/kg i.p. 1 h prior to and 5 h after 10.5 Gy IR, 24 days after IR, n=6",50%
same,protection from IR-induced death,"Male C57BL/6 mice; z-VAD 6 mg/kg i.p. twice, 1 h prior to and 5 h after 10.5 Gy IR",protected half
same,necrotic cell death (7-AAD+ cells),Lin− Sca1+ c-kit+ cells; [1],did not lead to an increase
same,IR-induced reduction of cell numbers,Lin− Sca1+ c-kit+ cells; [2],completely prevented
same,IR-induced apoptosis (annexin V+ and annexin V+/7-AAD+ cells),"Lin− Sca1+ c-kit+ cells; 100 μM z-VAD 1 h prior to 4 Gy IR, 6 h after IR",significantly inhibited
same,IR-induced apoptosis (annexin V+ and annexin V+/7-AAD+ cells),"Lin− Sca1+ c-kit+ cells; 100 μM z-VAD 1 h prior to 4 Gy IR, 18 h after IR",completely protected
same,IR-induced apoptosis,Lin− Sca1+ c-kit+ cells; 100 μM z-VAD given at 4 h post IR,only partially inhibited
same,IR-induced apoptosis,Lin− Sca1+ c-kit+ cells; 100 μM z-VAD given prior to IR (-1 h) or up to 2 h post IR,abrogated
